Our source for the logP, Efficacy and protection values is patent US9375004B2 (Bayer Intellectual Property GmbH, priority 2010, dated 2016).

The structures appear in SMILES notation.

Data set [1] in a line: logP by HPLC on reversed-phase column (EEC Directive 79/831 Annex V.A8). As to conditions: EEC Directive 79/831 Annex V.A8.
The test system of data set [2] is Fusarium nivale (var. majus). Briefly: Fusarium nivale (var. majus)-test (wheat)/preventive. As to conditions: for Efficacy: preventive, evaluated 5 days after inoculation; for protection: dose of 250 ppm and 500 ppm of active ingredient.
Data set [3] deals with Puccinia triticina. Briefly: Puccinia triticina-test (wheat)/preventive. Type of data set: in vivo. To be noted: 500 ppm, preventive, evaluated 8 days after inoculation.
Data set [4] deals with Alternaria solani. Briefly: Alternaria test (tomato)/preventive. Type of data set: in vivo. As to conditions: 500 ppm, preventive, evaluated 7 days after inoculation.
Data set [5] concerns Pyrenophora teres. Kind of data set: Pyrenophora teres-test (barley)/preventive. The format is in vivo. To be noted: 500 ppm, preventive, evaluated 8 days after inoculation.
For data set [6], the system named is Sphaerotheca fuliginea. Kind of data set: Sphaerotheca test (cucumber)/preventive. The format is in vivo. To be noted: 500 ppm, preventive, evaluated 7 days after inoculation.
For data set [7], the system named is Venturia inaequalis. Kind of data set: Venturia test (apples)/preventive. As to conditions: 100 ppm, preventive, evaluated 10 days after inoculation.
Protocol: Venturia Test (Apples)/Preventive
Solvent: 24.5 parts by weight of acetone • 24.5 parts by weight of N,N-dimethylformamide
Emulsifier: 1 part by weight of alkylaryl polyglycol ether
After the spray coating has dried on, the plants are inoculated with an aqueous conidia suspension of the causal agent of apple scab (Venturia inaequalis) and then remain for 1 day in an incubation cabinet at approximately 20° C. and a relative atmospheric humidity of 100%.
The plants are then placed in a greenhouse at approximately 21° C. and a relative atmospheric humidity of approximately 90%.
The test is evaluated 10 days after the inoculation.
Data set [8] concerns Uromyces appendiculatus. As to conditions: 100 ppm, beans, preventive, evaluated 10 days after inoculation.
The mark [9] stands for this setting: HPLC on reversed-phase column (C 18).
The mark [10] stands for this setting: HPLC on a reversed-phase column (C 18).

In data set [1] (setting [9]), `Cc1cc(C)c(-c2cccc(NC(=O)c3c(C(F)F)nn(C)c3Cl)c2)c(C)c1` [Example 212] displayed a log partition coefficient (logP) of 4.56. The values for the Efficacy in data set [2] (500 ppm) and in data set [3] were 75% and 86%, respectively.

As for `COC(C)(C)C#Cc1ccccc1NC(=O)c1c(C(F)F)nn(C)c1F` [Example 19], the Efficacy in data set [4] is 80%. Further, the logP in data set [1] (setting [9]) is listed as 3.34.

In data set [4], `CCCOc1cccc(NC(=O)c2c(C(F)F)nn(C)c2Cl)c1` [Example 174] displayed an Efficacy of 70%. The compound further showed a logP in data set [1] (setting [9]) of 3.25.

Take `Cn1nc(C(F)F)c(C(=O)Nc2cccc3c2CCC3)c1Cl` [Example 55]: in data set [1] (setting [9]), the logP was 3.19. In addition, the figures for the Efficacy in data set [2] (500 ppm), in data set [5] and in data set [3] were 83%, 71% and 100%, respectively.

On to `Cn1nc(C(F)F)c(C(=O)Nc2ccccc2C(C)(C)C)c1F` [Example 3], for which the Efficacy in data set [4] was found to be 94%; in data set [6], 98%. The compound further had a logP in data set [1] (setting [9]) of 2.98.

Regarding `Cn1nc(C(F)F)c(C(=O)Nc2ccccc2-c2ccc(-c3ccccc3)cc2)c1F` [Example 137], the Efficacy is on record as 95% in data set [4]; 100% in data set [6]; 100% in data set [7]; 93% in data set [5]; 99% in data set [8]; 100% in data set [3]. In addition, the logP in data set [1] (setting [9]) is 4.27.

With `Cn1cc(C(=O)Nc2cccc3c2C2CCC3C2=C(Cl)Cl)c(C(F)F)n1` (centres unmarked) [A1.1 from WO-2008/131901, N-[9-(dichloromethylene)-1,2,3,4-tetrahydro-1,4-methanonaphthalen-5-yl]-3-(difluoromethyl)-1-methyl-1H-pyrazole-4-carboxamide, reference compound], the Efficacy is recorded as 75% in data set [2] (250 ppm) and 88% in data set [2] (500 ppm). Also, in data set [2], the protection entry is “at least 70%”.

Regarding `Cn1nc(C(F)F)c(C(=O)Nc2ccccc2-c2cc(F)c(F)cc2F)c1F` [Example 107], the results for the Efficacy in data set [4] and in data set [6] were 100% and 88%, respectively. For the same compound, the logP in data set [1] (setting [9]) is 3.25.

In turn, `Cn1nc(C(F)F)c(C(=O)Nc2cccc(OC(F)(F)C(F)F)c2)c1Cl` [Example 188] returned a logP in data set [1] (setting [9]) of 3.09. For the same compound, the values for the Efficacy in data set [5], in data set [8] and in data set [3] were 92%, 100% and 100%, respectively.

With `Cc1cc(Cl)ccc1Oc1cccc(NC(=O)c2c(C(F)F)nn(C)c2F)c1` [Example 254], in data set [4], the Efficacy was found to be 70%. Besides, in data set [1] (setting [10]), the lipophilicity (logP) is on record as 4.19.

As for `CC(C)C1C2CCC1c1c(NC(=O)c3cn(C)nc3C(F)F)cccc12` (centres unmarked) [Example 15.202, 3-(difluoromethyl)-N-(9-isopropyl-1,2,3,4-tetrahydro-1,4-methanonaphthalen-5-yl)-1-methyl-1H-pyrazole-4-carboxamide, reference compound], the protection result in data set [2] was “average (less than 50%) protection to good (at least 70%) protection”.

In data set [4], `Cn1nc(C(F)F)c(C(=O)Nc2ccccc2OC(F)(F)C(F)C(F)(F)F)c1F` (centres unmarked) [Example 32] registered an Efficacy of 95%. This compound also came in with a logP in data set [1] (setting [9]) of 3.48.

With `Cn1nc(C(F)F)c(C(=O)Nc2ccc(F)cc2-c2ccc(F)cc2)c1F` [Example 77], the Efficacy in data set [4] and in data set [6] was 95% in each case. Also, the logP in data set [1] (setting [9]) is 3.16.

Regarding `Cn1nc(C(F)F)c(C(=O)Nc2ccccc2-c2ccc(-c3ccccc3)cc2)c1Cl` [Example 138], in data set [1] (setting [9]), the logP came to 4.61. For the same compound, the Efficacy amounted to 100% in data set [6], 86% in data set [5] and 100% in data set [3].

`Cn1nc(C(F)F)c(C(=S)Nc2ccccc2CC[Si](C)(C)C)c1Cl` [Example 25] registered a logP in data set [1] (setting [9]) of 4.56. The Efficacy in data set [2] (500 ppm) was 88%; in data set [3], 100%.

In the case of `Cn1nc(C(F)F)c(C(=O)Nc2ccccc2-c2ccccc2)c1F` [Example 73], the results for the Efficacy in data set [4] and in data set [6] were 90% and 75%, respectively. Also, the logP in data set [1] (setting [9]) was 3.25.

For `Cn1nc(C(F)F)c(C(=O)Nc2ccccc2-c2ccc(F)cc2)c1Cl` [Example 78], the Efficacy in data set [4] is reported as 90%; in data set [6], 75%. The compound also returned a logP in data set [1] (setting [9]) of 3.40.

Turning to `Cn1nc(C(F)F)c(C(=O)Nc2ccccc2-c2cccc(Cl)c2)c1Cl` [Example 87], the Efficacy in data set [4] and in data set [6] was 95% throughout. This compound also yielded a logP in data set [1] (setting [9]) of 3.87.

For the compound `Cn1nc(C(F)F)c(C(=O)Nc2ccccc2-c2ccc(F)cc2)c1F` [Example 80], the Efficacy in data set [4] was 95%; in data set [6], 98%. The log partition coefficient (logP) in data set [1] (setting [9]) came out at 3.20.

Turning to `Cn1nc(C(F)F)c(C(=O)Nc2ccccc2-c2ccc(Cl)c(Cl)c2)c1Cl` [Example 126], the Efficacy in data set [4] is reported as 89%; in data set [6] it was 100%; in data set [7], 75%; in data set [2] (500 ppm), 100%; in data set [5] it was 100%; in data set [8], 96%. The same compound showed an Efficacy in data set [3] of 100%. The same compound displayed a logP in data set [1] (setting [9]) of 4.14.

For the compound `CC(C)C1C2CCC1c1c(NC(=O)c3cn(C)nc3C(F)F)cccc12` (stereo not drawn) [15.202 (syn/anti 3/7) from WO-2004/035589] [3-(difluoromethyl)-N-(9-isopropyl-1,2,3,4-tetrahydro-1,4-methanonaphthalen-5-yl)-1-methyl-1H-pyrazole-4-carboxamide, reference compound], the figures for the Efficacy in data set [2] (250 ppm) and in data set [2] (500 ppm) were 50% and 83%, respectively.

On to `Cn1nc(C(F)F)c(C(=O)Nc2cccc(OC(F)(F)F)c2)c1Cl` [Example 181], for which, in data set [1] (setting [9]), the lipophilicity (logP) was determined as 3.25. The compound also yielded an Efficacy in data set [8] of 100%.

Turning to `Cn1nc(C(F)F)c(C(=O)Nc2ccc(F)cc2-c2ccc(F)cc2)c1Cl` [Example 79], the values for the Efficacy in data set [4] and in data set [6] were 90% and 95%, respectively. This compound gave a logP in data set [1] (setting [9]) of 3.41.

The compound `Cn1nc(C(F)F)c(C(=O)Nc2ccc3c(c2)CCC3)c1Cl` [Example 193] showed a logP in data set [1] (setting [9]) of 3.17. Moreover, the Efficacy in data set [2] (500 ppm) turned out to be 75%; in data set [3] it was 100%.

`Cn1nc(C(F)F)c(C(=O)Nc2cccc3c2CCC3)c1F` [Example 54] came in with an Efficacy in data set [4] of 70%. The logP in data set [1] (setting [9]) is reported as 2.94.

With `Cc1ccccc1-c1ccccc1NC(=O)c1c(C(F)F)nn(C)c1F` [Example 75], the Efficacy was 94% in data set [4], 100% in data set [5] and 70% in data set [3]. Besides, the logP in data set [1] (setting [9]) amounted to 3.74.

As to `Cn1nc(C(F)F)c(C(=S)Nc2ccccc2-c2ccc(Br)cc2)c1Cl` [Example 141], the figures for the Efficacy in data set [4] and in data set [6] were 70% and 95%, respectively. The compound also yielded a logP in data set [1] (setting [9]) of 3.96.

In data set [4], `Cn1nc(C(F)F)c(C(=O)Nc2ccccc2-c2ccccc2)c1Cl` [Example 74] had an Efficacy of 78%. In addition, the logP in data set [1] (setting [9]) was found to be 3.59.

For `Cn1nc(C(F)F)c(C(=S)Nc2ccccc2-c2ccc(Cl)c(F)c2)c1Cl` [Example 101], the Efficacy amounted to 80% in data set [4]; 95% in data set [6]; 100% in data set [2] (500 ppm); 100% in data set [5]; 100% in data set [3]. In addition, the logP in data set [1] (setting [9]) was determined as 3.92.

As for `CC1CC(C)(C)c2cccc(NC(=O)c3c(C(F)F)nn(C)c3Cl)c21` (centres unmarked) [Example 65], the Efficacy in data set [4] was 80%; in data set [7], 98%; in data set [2] (500 ppm), 86%; in data set [5] it was 100%; in data set [8], 100%; in data set [3], 100%. In addition, the logP in data set [1] (setting [9]) turned out to be 4.04.

For `CC(C)Oc1cccc(NC(=O)c2c(C(F)F)nn(C)c2Cl)c1` [Example 169], the logP in data set [1] (setting [9]) worked out at 2.98. In addition, the Efficacy in data set [7] amounted to 96%; in data set [2] (500 ppm), 71%; in data set [5], 100%; in data set [8] it was 100%; in data set [3] it was 100%.

In data set [4], `CCC(CC(C)C)c1ccccc1NC(=O)c1c(C(F)F)nn(C)c1F` (centres unmarked) [Example 20] gave an Efficacy of 90%. Besides, the logP in data set [1] (setting [9]) came out at 4.28.

Compound `CC(C)Oc1cccc(NC(=O)c2c(C(F)F)nn(C)c2F)c1` [Example 170] returned a logP in data set [1] (setting [9]) of 2.88. In addition, the Efficacy came out at 86% in data set [2] (500 ppm) and 100% in data set [3].

Consider `Cc1nn(C)c(F)c1C(=O)Nc1ccccc1C(C)CC(C)C` (centres unmarked) [I-21 from WO-2003/010149, 5-fluoro-1,3-dimethyl-N-[2-(4-methylpentan-2-yl)phenyl]-1H-pyrazole-4-carboxamide, reference compound], for which the Efficacy stood at 20% in data set [2] (250 ppm) and 40% in data set [2] (500 ppm). The protection entry in data set [2] was “less than 40%”.

For the compound `C=C(C)COc1cccc(NC(=O)c2c(C(F)F)nn(C)c2F)c1` [Example 176], the logP in data set [1] (setting [9]) turned out to be 3.15. Also, the Efficacy in data set [2] (500 ppm), in data set [5] and in data set [3] was 100% in each case.

For the compound `Cn1nc(C(F)F)c(C(=O)Nc2cccc(Oc3cccc(C(F)(F)F)c3)c2)c1Cl` [Example 255], the logP in data set [1] (setting [10]) amounted to 3.89. Also, the Efficacy in data set [2] (500 ppm) came out at 100%; in data set [8], 73%; in data set [3], 94%.

Usually logP stands for the decadic logarithm of the partition coefficient of the neutral form, usually between octanol and water.
